What was measured:
[1] = system: alloantigen-specific T cells; experiment: Inhibitory effect against alloantigen-specific T cells in vitro (mixed lymphocyte reaction, CFSE / 7-AAD); assay type: cell-based, mouse; conditions: for Apoptosis % (mean ± SD) Primary Response / Apoptosis % (mean ± SD) Secondary Response: 72 hours; for Apoptosis % (mean ± SD) Primary Response: vehicle 30.91 ± 3.80; for Apoptosis % (mean ± SD) Secondary Response: vehicle 39.10 ± 4.10
Procedure: The lymph nodes and spleens were aseptically collected from normal C57BL/6 mice (8-12 week old, female, 20±2 g) and were ground with adding of RPMI medium. Then, the ground tissues were passed through a cell strainer (BD Falcon) to make single cell suspensions. The single cell suspension of the spleen was centrifuged at 1200 rpm for 5 minutes. The supernatant was removed, and then 1 mL of ammonium chloride/potassium bicarbonate (ACK) lysis buffer (0.15 M NH4Cl, 1 mM KHCO3, 0.1 mM Na2EDTA) was added to the cells, which were then vortexed for 1 minute and washed with RPMI medium. […] The incubated cell suspension was added with 10 mL of MACS buffer, centrifuged for 5 minutes, washed, and then re-suspended in 2 mL of MACS buffer. The suspended cells were placed in the autoMACS Pro Separator (Miltenyi Biotec), and T cells bound to CD90.2 microbeads were isolated. The isolated T cells were washed with phosphate buffered saline (PBS), and then re-suspended in PBS at a concentration of 1×10^8 cells/mL. Normal BALB/c mice (10-12 week old, female, 20-23 g) were irradiated with 950 rad of γ radiation using IBL 437C irradiator (CIS bio international), and then 100 μL of the above-prepared T cell suspension of C57BL/6 mice were injected into the tail vein of the BALB/c mice. At 3 days after the cell injection, the mice were sacrificed, and the spleens were obtained. An erythrocyte-free single cell suspension was made from the obtained spleens in the same manner as described above, and donor T cells were separated from the spleen cell suspension using the autoMACS Pro Separator, thereby preparing secondary responder cells. Meanwhile, T cells were isolated from normal C57BL/6 mice in the same manner as described above, thereby preparing primary responder cells. Each of the primary and secondary responder cells were re-suspended in 1 mL of 1% FBS-containing PBS, and treated with 3 μM of carboxyfluorescein diacetate succinimidyl ester (CFSE, Invitrogen), and then allowed to react at room temperature for 4 minutes. To stop the reaction, cold-stored 5% FBS-containing PBS was added to the cell suspension, followed by washing. The washed cells were re-suspended in 10% FBS-containing RPMI medium at a concentration of 2×10^6/mL. The spleens of normal BALB/c mice (8-12 week old, female, 20±2 g) were aseptically collected. The erythrocyte-free spleen cells were prepared in the same manner as described above, and then re-suspended in 1 mL of PBS. 0.5 mg/mL of Mitomycin-C(Sigma) was added to the suspension at a concentration of 0.5 μg/mL, and the cells were incubated at 37° C. for 20 minutes, and then washed three times with an excessive amount of PBS. The washed cells were re-suspended in 10% FBS-containing RPMI medium at a concentration of 4×10^6 cells/mL, thereby preparing stimulator cells. The primary and secondary responder cells were mixed with the stimulator cells at a ratio of 1:1 separately, and 200 μL of each cell mixtures was dispensed into each well of a round bottom 96-well plate (Costar). Then, the cells were treated with 10 μL of Compound 229 diluted in RPMI medium at various concentrations, and incubated in a 5% CO2 incubator at 37° C. for 72 hours. In a vehicle control group, the cells were 10 μL of 0.2% DMSO-containing RPMI medium. The incubated cells were placed into 5-mL FACS tubes and washed with 1 mL of fluorescence activated cell sorting (FACS) buffer (1% FBS and 0.1% sodium azaide in PBS). The washed cells were re-suspended in 0.1 mL of FACS buffer, and then treated with 1 μg of mouse immunoglobulin G (IgG, e-Biosciences) in order to prevent the non-specific binding of antibody, followed by incubation at 4° C. for 15 minutes. Then, the cells were stained with 0.5 μg of phycoerythrin-conjugated anti-mouse H-2K^b mAb (e-Biosciences) and stained at 4° C. for 30 minutes. After the staining, the cells were washed twice with 1 mL of FACS buffer, re-suspended in 0.1 mL of FACS buffer, stained with 7-AAD at room temperature for 5 minutes. […]

[2] = Toxicity test, single oral dose in ICR male mice; conditions: mouse, in vivo, read-out: lethal dose 50 (LD50)
Procedure: To ICR male mice, a suspension of Compound 229 in 0.5% methylcellulose solution was administered orally once by each doses of 10 mg/kg, 50 mg/kg and 100 mg/kg, and the survival rate and body weight of the mice were investigated for 7 days. After such administration, mouse death or not, clinical condition and body weight change were monitored. Hematology test and biochemical examination of blood were carried out.

KMS28BM = experiment: Apoptosis of lymphoid malignancy cell lines: KMS28BM; assay type: cell-based; conditions: KMS-28BM, Multiple myeloma, 24 hours, read-out: Administration Dose (mean ± SD, μmol/L) Lethal Dose 50 (Apoptosis)
Procedure: Each of the acute T cell leukemia cell lines Jurkat, Molt4 and CCRF-CEM, the acute B cell leukemia cell line Raji and the […] cell lines KMS11, KMS12BM, KMS26, KMS28BM, and IM9 was re-suspended in 10% FBS-containing RPMI medium at a concentration of 1.5×10^5 cells/mL, and 200 μL of each of the cell suspensions was cultured in a flat bottom 96-well plate (Costar). The acute NK cell lymphoma cell line NK-92MI was re-suspended in α-MEM medium (supplemented with 20% FBS, 1×MEM vitamine solution, 50 μM 2-mercaptoethanol and 1× penicillin/streptomycin) at a concentration of 1.5×10^5 cells/mL, and 200 μL of the cell suspension was cultured in a flat bottom 96-well plate. The cells in each well was treated with 10 μL of each of 0.1, 0.25, 0.5, 0.75 and 1 μM of the compound diluted with RPMI medium, followed by that the cells were incubated in a 5% CO2 incubator at 37° C. for 24 hours. […]
The cells were collected, and then the apoptosis thereof was analyzed by a flow cytometer after staining with Annexin V-7-AAD. The incubated cells were collected, placed in a 5-mL FACS tube (BD Falcon) and washed with 1 mL of fluorescence activated cell sorting (FACS) buffer (1%. FBS and 0.1% sodium azaide in PBS). […] The stained cells were suspended in 0.3 mL of FACS buffer, and then analyzed by a flow cytometer. […]

Cc1cc(C)c(OCC(=O)N/N=C/c2ccc3cc[nH]c3c2)c(C2CCOC2)c1 (centres unmarked) [Compound 229, (E)-N′-((1H-indol-6-yl)methylene)-2-(2,4-dimethyl-6-(tetrahydrofuran-3-yl)phenoxy)acetohydrazide]
Apoptosis % (mean ± SD) Primary Response ([1]; 0.125 μM, 7-AAD): 28.42 ± 5.31%
Apoptosis % (mean ± SD) Secondary Response ([1]; 0.125 μM, 7-AAD): 41.40 ± 4.35%
increase of apoptosis compared to the vehicle control group, secondary response ([1]; 0.25 μM or higher, 7-AAD): 21-42%
Apoptosis % (mean ± SD) Primary Response ([1]; 0.25 μM, 7-AAD): 31.20 ± 4.26%
Apoptosis % (mean ± SD) Secondary Response ([1]; 0.25 μM, 7-AAD): 60.27 ± 6.10 %
increase of apoptosis compared to the vehicle control group, primary response ([1]; 0.5 μM or higher, 7-AAD): 14-19%
ratio of T cells (CFSE low) that proliferated in response to the alloantigen, of the total T cells ([1]; 0.5 μM or higher, vehicle control 50%): ≤ 3%
Apoptosis % (mean ± SD) Primary Response ([1]; 0.5 μM, 7-AAD): 45.01 ± 5.48 %
Apoptosis % (mean ± SD) Secondary Response ([1]; 0.5 μM, 7-AAD): 81.70 ± 5.62 %
Apoptosis % (mean ± SD) Primary Response ([1]; 1 μM, 7-AAD): 50.37 ± 6.19 %
Apoptosis % (mean ± SD) Secondary Response ([1]; 1 μM, 7-AAD): 80.37 ± 7.16 %
proliferation of the alloantigen-specific T cells, secondary response ([1]; T cells activated primarily by the alloantigen in vivo, reacted with the same antigen in vitro): effectively inhibited
LD50 at 7 days [2]: 100 mg/kg
EC50 (KMS28BM): 0.49 ± 0.08 µmol/L

Source: patent publication US9447083B2, “N-acylhydrazone derivatives for selective T cell inhibitor and anti-lymphoid malignancy drug” (CHONG KUN DANG PHARMACEUTICAL CORP., priority 2012, dated 2016)
